Read-outs that look alike come from different tables or passages of the source.
Tests used:
human NK1R = biological target: T1, human NK1R (Homo sapiens, UniProt P25103); test: Binding assay of human NK1R expressed in COS or CHO cells, displacement of 125I-substance P (Table 1, hNK1)
T1 construct: expressed in transfected cells
Experimental: (§1) A. Receptor Expression in COS
(§2) To express the cloned human neurokinin-1 receptor (NK 1R) transiently in COS, the cDNA for the human NK 1R was cloned into the expression vector pCDM9 which was derived from pCDM 8 (INVITROGEN) by inserting the ampicillin resistance gene (nucleotide 1973 to 2964 from BLUESCRIPT SK+) into the Sac II site. Transfection of 20 μg of the plasmid DNA into 10 million COS cells was achieved by electroporation in 800 μl of transfection buffer (135 mM NaCl, 1.2 mM CaCl2, 1.2 mM MgCl2, 2.4 mM K2 HPO4, 0.6 mM KH2 PO4, 10 mM glucose, 10 mM HEPES pH 7.4) at 260 V and 950 uF using the IBI GENEZAPPER (IBI, New Haven, Conn.). The cells were incubated in 10% fetal calf serum, 2 mM glutamine, 100 U/ml penicillin-streptomycin, and 90% DMEM media (GIBCO, Grand Island, N.Y.) in 5% CO2 at 37° C. for three days before the binding assay. Similar methods were used to express the NK2 receptor.
(§3) B. Stable Expression in CHO
(§4) To establish a stable cell line expressing the cloned human NK1R, the cDNA was subcloned into the vector pRcCMV (INVITROGEN). Transfection of 20 μg of the plasmid DNA into CHO cells was achieved by electroporation in 800 μl of transfection buffer suplemented with 0.625 mg/ml Herring sperm DNA at 300 V and 950 uF using the IBI GENEZAPPER (IBI). The transfected cells were incubated in CHO media (10% fetal calf serum, 100 U/ml pennicilin-streptomycin, 2 mM glutamine, 1/500 hypoxanthine-thymidine(ATCC), 90% IMDM media (JRH BIOSCIENCES, Lenexa, Kans.), 0.7 mg/ml G418 (GIBCO)) in 5% CO2 at 37° C. until colonies were visible. Each colony was separated and propagated. The cell clone with the highest number of human NK1R was selected for subsequent applications such as drug screening. Similar methods were used to express the human NK2 receptor.
(§5) C. Assay Protocol using COS or CHO The binding assay of human NK1R expressed in either COS or CHO cells is based on the use of ^125 I-substance P (^125 I-SP, from DU PONT, Boston, Mass.) as a radioactively labeled ligand which competes with unlabeled substance P or any other ligand for binding to the human NK1R. […] In the binding assay, 500 μl of cells were added to a tube containing 20 μl of 1.5 to 0.25 nM of ^125 I-SP and 5 μl of unlabeled substance P or any other test compound in DMSO. The tubes were incubated at 4° C. or at room temperature for 1 hour with gentle shaking. The bound radioactivity was separated from unbound radioactivity by GF/C filter (BRANDEL, Gaithersburg, Md.) which was pre-wetted with 0.1% polyethylenimine. The filter was washed with 3 ml of wash buffer (50 mM Tris pH 7.5, 5 mM MnCl2, 150 mM NaCl) three times and its radioactivity was determined by gamma counter. A similar assay was used for NK2 except ^125 I-NKA was used as the ligand.

human NK2 receptor = biological target: T2, human NK2 receptor (Homo sapiens, UniProt P21452); test: Binding assay of NK2 receptor expressed in COS or CHO cells, displacement of 125I-NKA (Table 1, hNK2)
T2 construct: expressed in transfected cells
T2 sequence (P21452 1-398): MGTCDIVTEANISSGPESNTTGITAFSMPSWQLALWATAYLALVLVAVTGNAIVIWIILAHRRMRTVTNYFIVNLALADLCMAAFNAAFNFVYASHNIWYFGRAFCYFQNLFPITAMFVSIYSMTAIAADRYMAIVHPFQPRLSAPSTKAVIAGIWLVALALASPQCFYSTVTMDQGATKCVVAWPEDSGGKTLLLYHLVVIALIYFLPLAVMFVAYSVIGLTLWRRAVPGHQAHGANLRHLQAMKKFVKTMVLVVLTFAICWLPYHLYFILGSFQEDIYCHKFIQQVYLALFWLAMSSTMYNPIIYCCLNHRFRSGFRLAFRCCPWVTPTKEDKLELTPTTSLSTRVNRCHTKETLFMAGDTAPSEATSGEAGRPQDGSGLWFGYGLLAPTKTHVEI
Experimental: as §1, §2, §3, §4, §5

[1] = human NK1 receptor, 125I-substance P ligand, read-out: hNK1 (IC50 nM)
[2] = human NK2 receptor, 125I-NKA ligand, read-out: hNK2 (IC50 nM)

T1 sequence (P25103 whole entry): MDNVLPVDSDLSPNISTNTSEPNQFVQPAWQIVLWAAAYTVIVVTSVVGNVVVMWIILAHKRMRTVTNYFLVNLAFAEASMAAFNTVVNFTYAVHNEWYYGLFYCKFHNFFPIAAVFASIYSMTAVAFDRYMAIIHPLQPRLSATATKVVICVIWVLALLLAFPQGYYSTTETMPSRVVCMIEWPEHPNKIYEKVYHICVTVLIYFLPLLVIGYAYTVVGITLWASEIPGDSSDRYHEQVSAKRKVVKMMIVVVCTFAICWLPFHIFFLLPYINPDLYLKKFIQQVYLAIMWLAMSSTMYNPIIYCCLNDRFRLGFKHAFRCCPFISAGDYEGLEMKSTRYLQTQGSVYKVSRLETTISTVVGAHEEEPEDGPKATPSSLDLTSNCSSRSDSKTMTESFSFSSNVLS

Compound	IC50 (human NK1R; [1]) [nM]	IC50 (human NK2 receptor; [2]) [nM]	IC50 (human NK1R) [nM]	IC50 (human NK2 receptor) [nM]
CS(=O)(=O)N1CC2(CCN(C(=O)N[C@@H](Cc3c[nH]c4ccccc34)C(=O)NCc3ccccc3)CC2)c2ccccc21 [Example 2, N-Benzyl-2-(S)-((1-methanesulfonyl-spiroindoline-3,4'-piperidino)-carbonyl-amino)-3-(3-indolyl)propionamide]	70	40		
CN(Cc1ccccc1)C(=O)[C@H](Cc1c[nH]c2ccccc12)NC(=O)N1CCC2(CCc3ccccc32)CC1 [Example 4, N-Benzyl-N-methyl-2-(S)-((spiroindane-1,4'-piperidino)-carbonyl-amino)-3-(3-indolyl)propionamide]	50	8		
CC(=O)N1CC2(CCN(C(=O)N[C@@H](Cc3c[nH]c4ccccc34)C(=O)N(C)Cc3ccccc3)CC2)c2ccccc21 [Example 6, N-Benzyl-N-methyl-2-(S)-((1-acetylspiroindoline-3,4'-piperidino)-carbonyl-amino)-3-(3-indolyl)propionamide]	15	30		
CN(Cc1ccccc1)C(=O)[C@H](Cc1c[nH]c2ccccc12)NC(=O)N1CCC(c2ccccc2)CC1 [Example 7]	60	50		
CC(=O)NC1(c2ccccc2)CCN(C(=O)N[C@@H](Cc2c[nH]c3ccccc23)C(=O)N(C)Cc2ccccc2)CC1 [Example 9, N-Benzyl-N-methyl-2-(S)-(((4-phenyl-4-acetylamino)piperidino)-carbonyl-amino)-3-(3-indolyl)propionamide]	60	> 100		
CN(Cc1ccccc1)C(=O)[C@H](Cc1c[nH]c2ccccc12)NC(=O)N1CCN(Cc2ccccc2)CC1 [Example 10, N-Benzyl-N-methyl-2-(S)-((4-benzylpiperazino)-carbonyl-amino)-3-(3-indolyl)propionamide]	60	100		
CN(Cc1ccccc1)C(=O)[C@H](Cc1c[nH]c2ccccc12)NC(=O)N1CCC(N2C(=O)NCc3ccccc32)CC1 [Example 11]			100	60
O=C(NCc1ccccc1)[C@H](Cc1c[nH]c2ccccc12)NC(=O)N1CCC2(CCc3ccccc32)CC1 [Example 15, N-Benzyl-2-(S)-((spiroindane-1,4'-piperidino)-carbonyl-amino)-3-(3-indolyl)propionamide]	100	35		
Cc1cccc(CNC(=O)[C@H](Cc2c[nH]c3ccccc23)NC(=O)N2CCC3(CCc4ccccc43)CC2)c1 [Example 17, N-(3-Methylbenzyl)-2-(S)-((spiroindane-1,4'-piperidino)-carbonyl-amino)-3-(3-indolyl)propionamide]	60	65		
Cc1ccc(CNC(=O)[C@H](Cc2c[nH]c3ccccc23)NC(=O)N2CCC3(CCc4ccccc43)CC2)cc1 [Example 18, N-(4-Methylbenzyl)-2-(S)-((spiroindane-1,4'-piperidino)-carbonyl-amino)-3-(3-indolyl)propionamide]	100	200		
O=C(NCCc1ccccc1)[C@H](Cc1c[nH]c2ccccc12)NC(=O)N1CCC2(CCc3ccccc32)CC1 [Example 19]	200	56		
CCN(Cc1ccccc1)C(=O)[C@H](Cc1c[nH]c2ccccc12)NC(=O)N1CCC2(CCc3ccccc32)CC1 [Example 20, N-Benzyl-N-ethyl-2-(S)-((spiroindane-1,4'-piperidino)-carbonyl-amino)-3-(3-indolyl)propionamide]	120	25		
C[C@H](NC(=O)[C@H](Cc1c[nH]c2ccccc12)NC(=O)N1CCC2(CCc3ccccc32)CC1)c1ccccc1 [Example 21, N-(1(S)-Phenylethyl)-2(S)-((spiroindane-1,4'-piperidino)-carbonyl-amino)-3-(3-indolyl)propionamide]	80	16		
C[C@@H](NC(=O)[C@H](Cc1c[nH]c2ccccc12)NC(=O)N1CCC2(CCc3ccccc32)CC1)c1ccccc1 [Example 22, N-(1(R)-Phenylethyl)-2(S)-((spiroindane-1,4'-piperidino)-carbonyl-amino)-3-(3-indolyl)propionamide]	1000	28		
Cc1cccc(CN(C)C(=O)[C@H](Cc2c[nH]c3ccccc23)NC(=O)N2CCC3(CC2)CN(S(C)(=O)=O)c2ccccc23)c1 [Example 25, N-(3-Methylphenyl)methyl-N-methyl-2-(S)-((1-methanesulfonyl-spiroindoline-3,4'-piperidino)-carbonyl-amino)-3-(3-indolyl)propionamide]	8	85		

Now from value to compound, other results behind:

IC50 (human NK1R; [1]) [nM]	IC50 (human NK2 receptor; [2]) [nM]	Compound	IC50 (human NK1R) [nM]	IC50 (human NK2 receptor) [nM]
40	10	CN(Cc1ccccc1)C(=O)[C@H](Cc1c[nH]c2ccccc12)NC(=O)N1CCC2(C=Cc3ccccc32)CC1 [Example 1, N-Benzyl-N-methyl-2-(S)-((spiro-1H-indene-1,4'-piperidino)-carbonyl-amino)-3-(3-indolyl)propionamide]		
1	> 1000	O=C(OCc1cc(C(F)(F)F)cc(C(F)(F)F)c1)[C@H](Cc1c[nH]c2ccccc12)NC(=O)N1CCC2(C=Cc3ccccc32)CC1 [Example 3, 3,5-Bistrifluoromethylbenzyl 2-(S)-((spiro-1H-indene-1,4'-piperidino)-carbonyl-amino)-3-(3-indolyl)propionate]		
20	12	CN(Cc1ccccc1)C(=O)[C@H](Cc1c[nH]c2ccccc12)NC(=O)N1CCC2(CC1)CN(S(C)(=O)=O)c1ccccc12 [Example 5, N-Benzyl-N-methyl-2-(S)-((1-methanesulfonyl-spiroindoline-3,4'-piperidino)-carbonyl-amino)-3-(3-indolyl)propionamide]		
90	25	CN(Cc1ccccc1)C(=O)[C@H](Cc1c[nH]c2ccccc12)NC(=O)N1CCC(Cc2ccccc2)CC1 [Example 8, N-Benzyl-N-methyl-2-(S)-((4-benzylpiperidino)-carbonyl-amino)-3-(3-indolyl)propionamide]		
20	25	COc1ccccc1N1CCN(C(=O)N[C@@H](Cc2c[nH]c3ccccc23)C(=O)N(C)Cc2ccccc2)CC1 [Example 12, N-Benzyl-N-methyl-2-(S)-((4-(2-methoxyphenyl)piperazino)-carbonyl-amino)-3-(3-indolyl)propionamide]		
30	15	Cc1ccccc1N1CCN(C(=O)N[C@@H](Cc2c[nH]c3ccccc23)C(=O)N(C)Cc2ccccc2)CC1 [Example 13, N-Benzyl-N-methyl-2-(S)-((4-(2-methylphenyl)piperazino)-carbonyl-amino)-3-(3-indolyl)propionamide]		
> 1000	650	O=C(Nc1ccccc1)[C@H](Cc1c[nH]c2ccccc12)NC(=O)N1CCC2(CCc3ccccc32)CC1 [Example 14, N-Phenyl-2-(S)-((spiroindane-1,4'-piperidino)-carbonyl-amino)-3-(3-indolyl)propionamide]		
100	15	Cc1ccccc1CNC(=O)[C@H](Cc1c[nH]c2ccccc12)NC(=O)N1CCC2(CCc3ccccc32)CC1 [Example 16, N-(2-Methylbenzyl)-2-(S)-((spiroindane-1,4'-piperidino)-carbonyl-amino)-3-(3-indolyl)propionamide]		

Source: patent US5869489A, “Trypthophan ureas as neurokinnin antagonists” (Merck & Co., Inc., priority 1997, dated 1999)
